PMC8619046, “ABCB1 and ABCG2 Control Brain Accumulation and Intestinal Disposition of the Novel ROS1/TRK/ALK Inhibitor Repotrectinib, While OATP1A/1B, ABCG2, and CYP3A Limit Its Oral Availability” (Pharmaceutics, 2021)
Read-outs that look alike come from different tables or passages of the source.

Experiments:
[1] = Toxicity signs observed in mice after oral repotrectinib; type: in vivo; details: 10 mg/kg oral
From the text: Mice with similar average ages (and body weights) were randomly allocated in experimental groups as far as possible. Mice were maintained in a temperature-controlled and specific pathogen-free environment with a 12-h light and 12-h dark cycle and they received a standard diet (Transbreed, SDS Diets, Technilab-BMI, Someren, The Netherlands) and acidified water ad libitum. […] Given the objective main readout (repotrectinib plasma and tissue concentrations as measured by LC-MS/MS), no blinding method was applied.
To minimize variation in absorption upon oral administration, mice were fasted for 2–3 h before repotrectinib (10 mg/kg body weight) was administered by gavage into the stomach at 10 µL/g body weight, with a blunt-ended needle. Tail vein serial blood samples were collected at 0.125, 0.25, 0.5, 1, 2 and 4 h using heparinized capillary tubes (Sarstedt, Nümbrecht, Germany) for the 8-h experiments. For the 4- and 2-h experiments, blood samplings were performed from the tail vein with the same schedule, but terminated at 2 and 1 h, respectively. Eight, four, or two hours after oral administration, mice were deeply anesthetized with 2–3% isoflurane, followed by cardiac puncture to collect blood in Eppendorf tubes containing heparin as an anticoagulant. Brain, liver, spleen, kidney, lung, small intestine, and testis were rapidly collected after sacrificing the mice by cervical dislocation. The small intestinal contents (SIC) were separated from small intestinal tissue (SI), which was flushed and rinsed with cold saline to remove any residual feces. Brain, liver, spleen, kidney, lung, SI, SIC, and testis were homogenized with 1, 3, 1, 2, 1, 3, 2, and 1 mL of 2% BSA (w/v), respectively. Plasma fraction was isolated from blood by centrifugation at 9000× g for 6 min at 4 °C. All samples were stored at −30 °C until analysis.

human ABCG2 = tested on: T1, human ABCG2; assay: Transepithelial transport, MDCK-II cells transduced with hABCG2; type: in vitro ADME; details: MDCK-II hABCG2, 5 µM, read-out: efflux transport ratio r
T1 construct: expressed in transfected cells; host or cells: MDCK-II cells stably transduced with hABCG2 cDNA (made in the authors' institute)
From the text: Polarized Madin-Darby Canine Kidney (MDCK-II) cells (ECACC 00062107) stably transduced with either human (h) ABCB1, hABCG2 or mouse (m) Abcg2 cDNA were generated in our institute between 1995–2005. The proper identity and functionality, such as highly characteristic growth and drug transporter properties, including inhibitor sensitivity, were regularly checked in these epithelial cells. Mycoplasma routinely tested negative in these cells. The passage number was 10–15 when used in the transport experiments.
Transepithelial transport experiments were performed as previously described with 12-well plates (Transwell 3414, Corning Inc., Kennebunk, ME, USA) containing microporous polycarbonate membrane filters (3.0 µm pore size, 12 mm diameter). […]
After pre-incubation with 5 µM zosuquidar (ABCB1 inhibitor) and/or 5 µM Ko143 (ABCG2/Abcg2 inhibitor) in both compartments (when appropriate) for 1 h, the transport phase was initiated (t = 0) by replacing the medium in apical and basolateral compartments with fresh DMEM with 10% FBS and the appropriate inhibitor(s), and repotrectinib at 5 µM in the donor compartment. […] The active transport ratio r, calculated by dividing the amount of apically directed drug transport by basolaterally directed drug translocation after 8 h, was used to assess active transport of repotrectinib.

C[C@H]1CNC(=O)c2cnn3ccc(nc23)N[C@H](C)c2cc(F)ccc2O1 [repotrectinib]
toxicity signs ([1]; Cyp3a−/− and Oatp1a/1b−/− mice): no noticeable signs of toxicity
time at which signs of toxicity disappeared ([1]; female Abcb1a/1b;Abcg2−/− mice): around 4 h
time of toxicity signs after oral administration ([1]; female Abcb1a/1b;Abcg2−/− mice): 1 to 2 h
toxicity signs ([1]; female Abcb1a/1b;Abcg2−/− mice, hypoactivity and continuously closed eyes): mild toxicity signs
toxicity signs ([1]; female wild-type mice): no noticeable toxicity symptoms
efflux ratio at 8 h, 5 µM (human ABCG2; pH 7.4, with zosuquidar 5 µM + Ko143 5 µM, + zosuquidar 5 µM + Ko143 5 µM): 0.95
efflux ratio at 8 h, 5 µM (human ABCG2; pH 7.4, with zosuquidar 5 µM, + zosuquidar 5 µM): 5.6
